{"source": "paper PMC10762035", "about": "“Molecular basis of human trace amine-associated receptor 1 activation” (Nature Communications, 2024)", "key": {"hTA1": {"molecular_target": "T1, hTA1 (Homo sapiens, UniProt Q96RJ0)", "T1 construct": "expressed in transfected cells; host or cells: HEK293T", "T1 sequence (Q96RJ0 1-339)": "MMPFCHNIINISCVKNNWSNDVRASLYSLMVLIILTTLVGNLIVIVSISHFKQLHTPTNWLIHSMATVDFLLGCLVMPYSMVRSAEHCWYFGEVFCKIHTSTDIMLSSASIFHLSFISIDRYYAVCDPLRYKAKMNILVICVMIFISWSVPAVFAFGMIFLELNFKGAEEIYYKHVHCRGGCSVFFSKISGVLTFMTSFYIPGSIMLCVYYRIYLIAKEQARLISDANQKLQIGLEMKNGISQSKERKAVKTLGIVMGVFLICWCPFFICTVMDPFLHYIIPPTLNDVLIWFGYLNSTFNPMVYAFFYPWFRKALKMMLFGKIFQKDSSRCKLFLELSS", "experiment": "GloSensor cAMP accumulation assay, concentration response, wild-type hTA1 in transfected HEK293T cells;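 further: luminescence read after 30 min compound exposure at room temperature in cells preloaded with D-Luciferin, reflecting Gs-driven cAMP rise, efficacy scaled to the maximal β-PEA response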", "assay_type": "cell-based"}, "hTA1 T194A": {"molecular_target": "T2, hTA1 T194A (Homo sapiens, UniProt Q96RJ0, T194A)", "T2 sequence (Q96RJ0 1-339 T194A)": "T1 sequence (Q96RJ0 1-339) with T194A", "experiment": "GloSensor cAMP accumulation assay, T194A mutant"}, "hTA1 I290Y": {"molecular_target": "T3, hTA1 I290Y (Homo sapiens, UniProt Q96RJ0, I290Y)", "T3 construct": "expressed in transfected cells; host or cells: HEK293T", "T3 sequence (Q96RJ0 1-339 I290Y)": "T1 sequence (Q96RJ0 1-339) with I290Y", "experiment": "GloSensor cAMP accumulation assay, I290Y mutant;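 on cAMP accumulation response, normalized (concentration-response source data, single replicate values): normalized to the maximum response of β-PEA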", "assay_type": "cell-based", "settings": "for cAMP accumulation response, normalized (concentration-response source data, single replicate values): hTA1 I290Y (N=3), log[Compound]"}, "hTA1 R83H": {"molecular_target": "T4, hTA1 R83H (Homo sapiens, UniProt Q96RJ0, R83H)", "T4 construct": "expressed in transfected cells; host or cells: HEK293T", "T4 sequence (Q96RJ0 1-339 R83H)": "T1 sequence (Q96RJ0 1-339) with R83H", "experiment": "GloSensor cAMP accumulation assay, R83H mutant;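 further: cells transiently co-expressing hTA1 and a cAMP GloSensor, luminescence read 30 min after agonist addition at room temperature, concentration–response fitted by non-linear regression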", "assay_type": "cell-based"}}, "note": "Numbering of substitutions follows the chain as printed. “And” between values parts separate entries of the source, which are not always exact repeats. Identical values can stand only once.", "data": [{"smiles": "Cc1c(F)cccc1[C@H]1COC(N)=N1", "note": "[Ro5263397]", "values": [{"measurement": "pEC50 values, Avg", "setting": "hTA1; WT hTA1, average of the two experiments, Figure 2B source data", "value": 8.831}, {"measurement": "pEC50 values, Mean", "setting": "hTA1; WT hTA1, each line an independent experiment, 3 replicates, Figure 2B source data", "value": "8.992 and 8.671"}, {"measurement": "Emax values, Mean", "setting": "hTA1; WT hTA1, β-PEA = 100, each line an independent experiment, 3 replicates", "value": "87.687 and 85.7197"}, {"measurement": "Emax values, Avg", "setting": "hTA1; WT, average of the experiments, β-PEA = 100", "value": 86.7}, {"measurement": "Emax values, Avg", "setting": "hTA1; WT, average of the two experiments", "value": 86.7}, {"measurement": "Emax values, Mean", "setting": "hTA1; WT, mean of each independent experiment (3 replicates), β-PEA = 100", "value": "87.687 and 85.7197"}, {"measurement": "Emax values, Mean", "setting": "hTA1; WT, single experiments (3 replicates each), β-PEA = 100", "value": "87.687 and 85.7197"}, {"measurement": "pEC50 ± SEM", "setting": "hTA1; wt hTA1, HEK293T, n=3", "value": "8.83 ± 0.09"}, {"measurement": "EC50", "setting": "hTA1; wt hTA1, HEK293T, n=3, read-out: EC50", "value": "1.47 nM and 1.48 nM"}, {"measurement": "Emax", "setting": "hTA1; wt hTA1, relative to β-PEA", "value": 86.7, "unit": "%"}, {"measurement": "ΔpEC50 values (each mutant value - WT average), Mean", "setting": "hTA1 T194A; T149A (so in the source) minus WT average", "value": "-1.583 and -1.53 and -1.429"}, {"measurement": "pEC50 values, Mean", "setting": "hTA1 T194A; T149A (so in the source), single experiments (3 replicates each)", "value": "7.248 and 7.301 and 7.402"}, {"measurement": "Emax values, Mean", "setting": "hTA1 T194A; T149A (so in the source), single experiments (3 replicates each), β-PEA = 100", "value": "143.384 and 86.8999 and 99.8921"}, {"measurement": "EC50", "setting": "hTA1 T194A; T194A", "value": 56.4, "unit": "nM"}, {"measurement": "Span ± SEM (Emax normalized to β-PEA)", "setting": "hTA1 T194A; T194A", "value": 110.06}, {"measurement": "pEC50 ± SEM", "setting": "hTA1 T194A; T194A", "value": "7.32 ± 0.14"}, {"measurement": "reduction in potency vs wild type", "setting": "hTA1 T194A; T194A", "value": "over 30 fold"}, {"measurement": "Span ± SEM (Emax normalized to β-PEA)", "setting": "hTA1 I290Y; I290Y", "value": "61.58 ± 3.99"}, {"measurement": "pEC50 ± SEM", "setting": "hTA1 I290Y; I290Y", "value": "9.16 ± 0.18"}, {"measurement": "EC50", "setting": "hTA1 I290Y; I290Y, read-out: EC50", "value": "0.69 nM and 0.7 nM"}, {"measurement": "Emax values, Mean", "setting": "hTA1 I290Y; I290Y, single experiments (3 replicates each), β-PEA = 100", "value": "59.7265 and 69.2263 and 55.7889"}, {"measurement": "cAMP accumulation response, normalized (concentration-response source data, single replicate values)", "setting": "hTA1 I290Y; M = -5", "value": "77.8381 and 104.308 and 85.2251 and 91.2333 and 75.1101 and 85.0039 and 68.1063 and 86.1539 and 148.193"}, {"measurement": "cAMP accumulation response, normalized (concentration-response source data, single replicate values)", "setting": "hTA1 I290Y; M = -5.522", "value": "49.5212 and 78.7614 and 62.4485 and 78.7745 and 74.7437 and 50.1924 and 55.6986 and 43.2908 and 39.9069"}, {"measurement": "cAMP accumulation response, normalized (concentration-response source data, single replicate values)", "setting": "hTA1 I290Y; M = -6", "value": "40.5953 and 87.0718 and 61.2173 and 64.117 and 63.3841 and 61.5519 and 45.5468 (2×) and 50.0587"}, {"measurement": "cAMP accumulation response, normalized (concentration-response source data, single replicate values)", "setting": "hTA1 I290Y; M = -6.522", "value": "56.6004 and 53.5225 and 48.9057 and 84.6375 and 52.7574 and 75.4765 and 66.9783 and 45.5468 and 38.7789"}, {"measurement": "cAMP accumulation response, normalized (concentration-response source data, single replicate values)", "setting": "hTA1 I290Y; M = -7", "value": "35.3628 and 69.2199 and 41.5187 and 56.0554 and 64.117 and 50.9252 and 46.6748 and 39.9069 and 45.5468"}, {"measurement": "cAMP accumulation response, normalized (concentration-response source data, single replicate values)", "setting": "hTA1 I290Y; M = -7.522", "value": "46.4433 and 76.2991 and 50.1368 and 60.819 and 63.0177 and 60.4526 and 39.9069 and 45.5468 and 47.8027"}, {"measurement": "cAMP accumulation response, normalized (concentration-response source data, single replicate values)", "setting": "hTA1 I290Y; M = -8", "value": "61.8329 and 86.4562 and 67.9887 and 68.1478 and 70.3464 and 73.6443 and 36.523 and 37.651 and 32.0111"}, {"measurement": "cAMP accumulation response, normalized (concentration-response source data, single replicate values)", "setting": "hTA1 I290Y; M = -8.522", "value": "54.7537 and 78.4536 and 76.2991 and 69.98 and 71.4457 and 63.7505 and 30.8831 and 33.1391 (2×)"}, {"measurement": "cAMP accumulation response, normalized (concentration-response source data, single replicate values)", "setting": "hTA1 I290Y; M = -9", "value": "45.2122 and 78.7614 and 61.8329 and 45.0622 and 50.1924 and 56.0554 and 15.0915 and 19.6034 and 12.8355"}, {"measurement": "cAMP accumulation response, normalized (concentration-response source data, single replicate values)", "setting": "hTA1 I290Y; M = -9.522", "value": "19.3577 and 32.5927 and 26.1291 and 49.4595 and 39.5657 and 25.2746 and 3.812 (2×) and 8.324"}, {"measurement": "cAMP accumulation response, normalized (concentration-response source data, single replicate values)", "setting": "hTA1 I290Y; M = -10", "value": "27.9758 and 29.5148 and 27.3602 and 7.319 and 9.884 and 17.5794 and 0.4278 and 2.684 and 7.196"}, {"measurement": "cAMP accumulation response, normalized (concentration-response source data, single replicate values)", "setting": "hTA1 I290Y; M = -10.522", "value": 6.738}, {"measurement": "ΔEmax values (each mutant value - WT average)", "setting": "hTA1 R83H; R83H mutant minus WT average", "value": -44.7513}, {"measurement": "ΔpEC50 values (each mutant value - WT average)", "setting": "hTA1 R83H; R83H mutant minus WT average", "value": "-0.3934 and -0.2739"}, {"measurement": "pEC50 values, Mean", "setting": "hTA1 R83H; R83H mutant, each line an independent experiment, 3 replicates", "value": "8.438 and 8.557"}, {"measurement": "Emax values, Mean", "setting": "hTA1 R83H; R83H mutant, β-PEA = 100, each line an independent experiment, 3 replicates", "value": "41.952 and 25.7686"}, {"measurement": "Span ± SEM (Emax normalized to β-PEA)", "setting": "hTA1 R83H; R83H, n=2", "value": "33.86 ± 8.09"}, {"measurement": "pEC50 ± SEM", "setting": "hTA1 R83H; R83H, n=2", "value": "8.5 ± 0.15"}, {"measurement": "EC50", "setting": "hTA1 R83H; R83H, n=2, read-out: EC50", "value": 3.18, "unit": "nM"}]}]}
